Entries after “also recorded” stand apart in the source; their conditions may differ.
Key:
liver of rats = assay: qReal time-PCR gene expression in the liver of rats from in vivo study 1 and 2; set-up: species or system Wistar rats
Protocol: Panels A and B. • Study 1: Twenty adult Wistar rats, aged 8-10 weeks, were included in the study. The rats were housed in individual cages at 22° C. with 12-h light cycles and had ad libitum access to food and water. Rats were fed a high fat high cholesterol diet (44% Carbohydrate, 14% Protein, 42% fat+0.2% Cholesterol) for 4 weeks in the presence or absence of 1% Dodecanedioic acid, sodium salt dissolved in the water (FIG. 25, Panel A). Body weight and food/water intake were monitored weekly. • Study 2: Twenty adult Wistar rats, aged 8-10 weeks, were included in the study. The rats were housed in individual cages at 22° C. with 12-h light cycles and had ad libitum access to food and water. Rats were fed a high fat-high cholesterol diet (44% Carbohydrate, 14% Protein, 42% fat+0.2% Cholesterol). After 9 weeks of diet, rats were randomly assigned to one of the following groups: 4 weeks of high fat-high cholesterol diet or 4 weeks of high fat-high cholesterol diet and 1% Dodecanedioic acid, sodium salt dissolved in the water (FIG. 25, Panel B). Body weight and food/water intake were monitored weekly.
Total RNA from human primary hepatocytes was extracted using the RNeasy Plus Mini Kit according to the indications provided by the company. A small aliquot of total RNA obtained (3 μl) was subjected to qualitative and quantitative control by using the microdrop. The qualitative and quantitative assessment of the individual samples was determined using a dedicated software. The total RNA was reverse transcribed into cDNA by using iScript RT. SYBR Green gene expression assays were performed according to the manufacturer's instruction using the iQTMSYBR Green Supermix and the CFX96 Touch Real-Time PCR Detection System. For this purpose, the following pairs of primer were used: solute carrier family 13 member 5 (SLC13A5) (forward 5′ […] 3′ (SEQ ID NO:1) and reverse 5′ […] 3′ (SEQ ID NO:2)), Diacylglycerol O-Acyltransferase 1 (DGAT1) (forward 5′ […] 3′ (SEQ ID NO:3) and reverse 5′ […] 3′ (SEQ ID NO:4)), Fatty Acid Synthase (FASN) (forward 5′ […] 3′ (SEQ ID NO:5) and reverse 5′ […] 3′ (SEQ ID NO:6)), carnitine palmitoyltransferase 1A (CPT1A) (forward 5′ […] 3′ (SEQ ID NO:7) and reverse 5′ […] 3′ (SEQ ID NO:8)) and Acetyl-CoA carboxylase (ACC1) (forward 5′ […] 3′ (SEQ ID NO:9) and reverse 5′ […] 3′ (SEQ ID NO:10)). mRNA expression levels were normalized to B2-microglobulin (forward 5′[…] 3′ (SEQ ID NO:11); and reverse 5′[…] 3′ (SEQ ID NO:12)) and quantification of relative gene expression, presented as percentage of the relevant baseline, was calculated using the 2-ACT (comparative threshold) method.
C12 decrease de novo lipogenesis and an increase in fatty acid oxidation in vitro and in vivo: To test the hypothesis that C12 could affect de novo lipogenesis and fatty acid beta-oxidation, human primary hepatocytes were stimulated with palmitic acids (0.4 mM) in the presence or absence of C12 1% (v/w). […] Similar results were also observed in our in vivo experiments. […] Data from in vivo study 1 and 2 were pooled together.

Wistar rats = assay: Study 1 (prevention): oral glucose tolerance test and HOMA-IR; format: in vivo; conditions: Study 1: 1% (w/vol) in drinking water with high fat-high cholesterol diet for 4 weeks
Protocol: Study design: All animal procedures were approved by the Catholic University of Rome Institutional Animal Care Committee. The design of the studies is summarized in FIG. 18, Panels A and B. • Study 1: Twenty adult Wistar rats, aged 8-10 weeks, were included in the study. The rats were housed in individual cages at 22° C. with 12-h light cycles and had ad libitum access to food and water. Rats were fed a high-fat high-cholesterol diet (44% Carbohydrate, 14% Protein, 42% fat+0.2% Cholesterol) (Mucedola, Milan, IT) for four weeks in the presence or absence of 1% Dodecanedioic acid, sodium salt (w/vol) dissolved in the water (FIG. 18, Panel A). Body weight and food/water intake were monitored weekly. • Study 2: Twenty adult Wistar rats, aged 8-10 weeks, were included in the study. The rats were housed in individual cages at 22° C. with 12-h light cycles and had ad libitum access to food and water. Rats were fed a high-fat high-cholesterol diet (44% Carbohydrate, 14% Protein, 42% fat+0.2% Cholesterol) (Mucedola, Milan, IT). After nine weeks of diet, rats were randomly assigned to one of the following groups: Four weeks of high-fat high-cholesterol diet or four weeks of high-fat high-cholesterol diet and 1% Dodecanedioic acid, sodium salt (w/v) dissolved in the water FIG. 18, Panel B). Body weight and food/water intake were monitored weekly.
Oral Glucose Test Tolerance (OGTT): All animals underwent an OGTT at the end of the study. After an overnight fasting, the rats received a 50% D-glucose solution (1 g/kg body weight) by oral gavage. Blood samples were taken by tail bleeding and collected in EDTA tubes. All blood samples were immediately centrifuged, and plasma divided into appropriate subsamples and stored at −20° C. for further analysis. Blood glucose and was measured at 0, 20, 40, 60, 80, 100 and 120 minutes, while plasma insulin at 0, 60 and 120 minutes. Blood glucose levels were measured by glucometer (Accu-Chek, Roche Diagnostics Division, Grenzacherstrasse, CH). Plasma insulin was measured by ELISA (EMD Millipore Corporation, Billerica, MA), with a sensitivity of 0.1 ng/ml and an intra-and inter-assay precision of 1.9% and 7.6%, respectively.
DODA administration prevents the onset of insulin resistance and NASH: To test the hypothesis that DODA could prevent the development of diet-induced insulin resistance and NASH, the inventors administered 1% (w/vol) of DODA in the drinking water together with a high fat-high cholesterol diet for 4 weeks. Rats fed high fat-high cholesterol diet without the administration of DODA were included as controls.
Panels A and B. • Study 1: Twenty adult Wistar rats, aged 8-10 weeks, were included in the study. The rats were housed in individual cages at 22° C. with 12-h light cycles and had ad libitum access to food and water. Rats were fed a high fat high cholesterol diet (44% Carbohydrate, 14% Protein, 42% fat+0.2% Cholesterol) for 4 weeks in the presence or absence of 1% Dodecanedioic acid, sodium salt dissolved in the water (FIG. 25, Panel A). Body weight and food/water intake were monitored weekly. • Study 2: Twenty adult Wistar rats, aged 8-10 weeks, were included in the study. The rats were housed in individual cages at 22° C. with 12-h light cycles and had ad libitum access to food and water. Rats were fed a high fat-high cholesterol diet (44% Carbohydrate, 14% Protein, 42% fat+0.2% Cholesterol). […] Body weight and food/water intake were monitored weekly. […]

[1] = in vivo study 1 and 2 pooled, vs control group
[2] = rats from in vivo study 1 and 2, vs control group

O=C(O)CCCCCCCCCCC(=O)O [DDDA, dodecanedioic acid]
ACC1 (de novo lipogenesis enzyme) in liver (liver of rats; [1]): decrease
CPT1A (fatty acid beta-oxidation enzyme) in liver (liver of rats; [1]): significant increase
DGAT (de novo lipogenesis enzyme) in liver (liver of rats; [1]): decrease
FASN (de novo lipogenesis enzyme) in liver (liver of rats; [1]): decrease
gene expression of citrate transporter SLC13A5 in liver (liver of rats; [1]): decrease
COLA1A gene expression in liver (liver of rats; [2]): decreased expression
TGFβ gene expression in liver (liver of rats; [2]): decreased expression
αSMA gene expression in liver (liver of rats; [2]): decreased expression
blood glucose concentrations during an oral glucose tolerance test (Wistar rats; vs controls): decrease
hepatic insulin resistance assessed by HOMA-IR (Wistar rats; vs controls): decreased
plasma insulin concentrations during an oral glucose tolerance test (Wistar rats; vs controls): decrease
diet-induced insulin resistance and NASH (overall, prevention) (Wistar rats; listed as C12): able to prevent diet-induced insulin resistance and NASH; also recorded: prevents diet-induced insulin resistance and NASH
diet-induced insulin resistance and NASH (overall, prevention) (Wistar rats; listed as DODA): able to prevent diet-induced insulin resistance and NASH; also recorded: prevents diet-induced insulin resistance and NASH

Source: patent US20260053767A1, “Hepatoprotective Compositions And Methods” (Jemyll, Ltd., priority 2022, published 2026)
